# Data published in US8067589B2, “Heterocyclic compounds useful in treating diseases and conditions” (Pfizer Inc, priority 2007, dated 2011).
# Target: human recombinant H-PGDS (Homo sapiens, UniProt O60760)
# Experiment: Fluoresecence Intensity h-PGDSTBA Enzyme Assay
# Settings: IC50, 5.0 μM PGH2, 2.5 mM L-Glutathione, 10 min preincubation, 4-parameter fit, highest inhibitor concentration typically 1 μM
# Sequence of human recombinant H-PGDS (O60760 whole entry): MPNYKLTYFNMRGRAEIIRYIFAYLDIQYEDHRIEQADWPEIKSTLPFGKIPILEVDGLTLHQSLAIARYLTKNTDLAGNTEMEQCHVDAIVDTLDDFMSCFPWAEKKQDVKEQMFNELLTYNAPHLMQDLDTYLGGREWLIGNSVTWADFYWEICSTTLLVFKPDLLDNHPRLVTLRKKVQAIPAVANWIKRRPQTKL
row,Structure (SMILES),IC50
1,"CC(C)CN1CCC(NC(=O)c2cnc(-c3ccccc3)nc2)CC1 [Example 11, N-(1-Isobutylpiperidin-4-yl)-2-phenyl-pyrimidine-5-carboxamide]",0.381 nM
2,"CCc1ccc(OCC(c2ccccc2)N2CCC(NC(=O)c3cnc(-c4cccc(F)c4)nc3)CC2)cc1 (centres unmarked) [Example 46, N-{1-[2-(4-Ethylphenoxy)-1-phenylethyl]piperidin-4-yl}-2-(3-fluorophenyl)pyrimidine-5-carboxamide]",23.8 nM
3,"COc1ccc(OCC(c2ccccc2)N2CCC(NC(=O)c3cnc(-c4cccc(F)c4)nc3)CC2)cc1 (centres unmarked) [Example 58, 2-(3-Fluorophenyl)-N-{1-[2-(4-methoxyphenoxy)-1-phenylethyl]piperidin-4-yl}pyrimidine-5-carboxamide]",2.08 nM
4,"COc1ccccc1OCC(c1ccccc1)N1CCC(NC(=O)c2cnc(-c3cccc(F)c3)nc2)CC1 (centres unmarked) [Example 54, 2-(3-Fluorophenyl)-N-{1-[2-(2-methoxyphenoxy)-1-phenylethyl]piperidin-4-yl}pyrimidine-5-carboxamide]",6.13 nM
5,"O=C(NC1CCN(C(COc2cc(F)cc(F)c2)c2ccccc2)CC1)c1cnc(-c2cccc(F)c2)nc1 (centres unmarked) [Example 34, N-{1-[2-(3,5-Difluorophenoxy)-1-phenylethyl]piperidin-4-yl}-2-(3-fluorophenyl)pyrimidine-5-carboxamide]",6.46 nM
6,"O=C(NC1CCN(Cc2ccccn2)CC1)c1cnc(-c2ccccc2)nc1 [Example 8, 2-Phenyl-N-[1-(pyridin-2-ylmethyl)piperidin-4-yl] pyrimidine-5-carboxamide]",0.461 nM
7,"CC(C)N1CCC(NC(=O)c2cnc(-c3ccccc3)nc2O)CC1 [Example 24, 4-Hydroxy-N-(1-isopropylpiperidin-4-yl)-2-phenyl pyrimidine-5-carboxamide]",≥ 1000 nM
8,"CCCCOCCCN1CCC(NC(=O)c2cnc(-c3cccc(F)c3)nc2)C1=O (centres unmarked) [Example 91, N-[1-(3-Butoxypropyl)-2-oxopyrrolidin-3-yl]-2-(3-fluorophenyl)pyrimidine-5-carboxamide]",2.8 nM
9,"CCOC(=O)N1CCC(NC(=O)c2cnc(-c3ccccc3)nc2C)CC1 [Example 6, Ethyl 4-{[(4-methyl-2-phenylpyrimidin-5-yl)carbonyl]amino)} piperidine-1-carboxylate]",6.54 nM
10,"CC(C)CN1CCC(NC(=O)c2cnc(-c3ccccc3)nc2N)CC1 [Example 15, 4-Amino-N-(1-isobutylpiperidin-4-yl)-2-phenyl-pyrimidine-5-carboxamide]",≥ 1000 nM
11,"Nc1nc(-c2ccccc2)ncc1C(=O)NC1CCN(Cc2ccccn2)CC1 [Example 18, 4-Amino-2-phenyl-N-[1-(pyridin-2-ylmethyl)piperidin-4-yl]pyrimidine-5-carboxamide]",16.4 nM
12,"Cc1nc(-c2ccccc2)ncc1C(=O)NC1CCN(CC2CCOCC2)CC1 [Example 7, 4-Methyl-2-phenyl-N-[1-(tetrahydro-2H-pyran-4-ylmethyl)piperidin-4-yl] pyrimidine-5-carboxamide]",30.4 nM
13,"O=C(NC1CCN(C(COc2ccc(F)cc2)c2ccccc2)CC1)c1cnc(-c2cccc(F)c2)nc1 (centres unmarked) [Example 44, N-{1-[2-(4-Fluorophenoxy)-1-phenylethyl]piperidin-4-yl}-2-(3-fluorophenyl)pyrimidine-5-carboxamide]",16.2 nM
14,"O=C(NC1CCN(Cc2ccccc2)CC1)c1cnc(-c2ccccc2)nc1O [Example 19, N-(1-Benzylpiperidin-4-yl)-4-hydroxy-2-phenylpyrimidine-5-carboxamide]",≥ 1000 nM
15,"O=C(NC1CCN(C(COc2c(F)ccc(Cl)c2F)c2ccccc2)CC1)c1cnc(-c2cccc(F)c2)nc1 (centres unmarked) [Example 33, N-{1-[2-(3-Chloro-2,6-difluorophenoxy)-1-phenylethyl]piperidin-4-yl}-2-(3-fluorophenyl)pyrimidine-5-carboxamide]",15.5 nM
16,"Cc1ccc(OCC(c2ccccc2)N2CCC(NC(=O)c3cnc(-c4cccc(F)c4)nc3)CC2)cc1C (centres unmarked) [Example 56, N-{1-[2-(3,4-Dimethylphenoxy)-1-phenylethyl]piperidin-4-yl}-2-(3-fluorophenyl)pyrimidine-5-carboxamide]",14.2 nM
17,"CCCC(=O)N1CCC(NC(=O)c2cnc(-c3ccccc3)nc2C)CC1 [Example 5, N-(1-Butyrylpiperidin-4-yl)-4-methyl-2-phenylpyrimidine-5-carboxamide]",8.02 nM
18,"O=C(NC1CCN(Cc2ccc(OC(F)(F)F)cc2)CC1)c1cnc(-c2cccc(F)c2)nc1 [Example 36, 2-(3-Fluorophenyl)-N-{1-[4-(trifluoromethoxy)benzyl]piperidin-4-yl}pyrimidine-5-carboxamide]",4.54 nM
19,"O=C(NC1CCN(c2cccnn2)CC1)c1cnc(-c2cccc(F)c2)nc1 [Example 26, 2-(3-Fluorophenyl)-N-(1-pyridazin-3-ylpiperidin-4-yl)pyrimidine-5-carboxamide]",0.136 nM
20,"O=C(NC1CCN(C(COc2c(F)cccc2Cl)c2ccccc2)CC1)c1cnc(-c2cccc(F)c2)nc1 (centres unmarked) [Example 29, N-{1-[2-(2-Chloro-6-fluorophenoxy)-1-phenylethyl]piperidin-4-yl}-2-(3-fluorophenyl)pyrimidine-5-carboxamide]",11.4 nM
21,"O=C(NC1CCN(C(COc2cc(F)ccc2F)c2ccccc2)CC1)c1cnc(-c2cccc(F)c2)nc1 (centres unmarked) [Example 51, N-{1-[2-(2,5-Difluorophenoxy)-1-phenylethyl]piperidin-4-yl}-2-(3-fluorophenyl)pyrimidine-5-carboxamide]",10 nM
22,"O=C(NC1CCN(C(COc2cccc(F)c2F)c2ccccc2)CC1)c1cnc(-c2cccc(F)c2)nc1 (centres unmarked) [Example 53, N-{1-[2-(2,3-Difluorophenoxy)-1-phenylethyl]piperidin-4-yl}-2-(3-fluorophenyl)pyrimidine-5-carboxamide]",59.2 nM
23,"CNC(=O)N1CCC(NC(=O)c2cnc(-c3cccc(F)c3)nc2)CC1 [Example 25, 2-(3-Fluorophenyl)-N-{1-[(methylamino)carbonyl]piperidin-4-yl}pyrimidine-5-carboxamide]",0.373 nM
24,"O=C(NC1CCN(Cc2ccccn2)CC1)c1cnc(-c2ccccc2)nc1O [Example 21, 4-Hydroxy-2-phenyl-N-[1-(pyridin-2-ylmethyl)piperidin-4-yl]pyrimidine-5-carboxamide]",992 nM
25,"O=C(NC1CCN(C(COc2ccccc2)c2ccccc2)CC1)c1cnc(-c2cccc(F)c2)nc1 (centres unmarked) [Example 38, 2-(3-Fluorophenyl)-N-[1-(2-phenoxy-1-phenylethyl)piperidin-4-yl]pyrimidine-5-carboxamide]",6.71 nM

# Now from value to compound:
row,IC50,Structure (SMILES)
1,0.808 nM,"O=C(NC1CCN(C2Cc3ccccc3C2)C1=O)c1cnc(-c2cccc(F)c2)nc1 (centres unmarked) [Example 90, N-[1-(2,3-Dihydro-1H-inden-2-yl)-2-oxopyrrolidin-3-yl]-2-(3-fluorophenyl)pyrimidine-5-carboxamide]"
2,30 nM,"O=C(NC1CCN(Cc2ccc(C(F)(F)F)cc2)CC1)c1cnc(-c2cccc(F)c2)nc1 [Example 67, 2-(3-Fluorophenyl)-N-{1-[4-(trifluoromethyl)benzyl]piperidin-4-yl}pyrimidine-5-carboxamide]"
3,2040 nM,"O=C(NC1CCN(Cc2ccccn2)CC1)c1cnc(-c2cccc(CO)c2)nc1 [Example 159, 2-[3-(Hydroxymethyl)phenyl]-N-[1-(pyridin-2-ylmethyl)piperidin-4-yl]pyrimidine-5-carboxamide]"
4,0.16 nM,"O=C(NC1CCN(Cc2ccccc2F)CC1)c1cnc(-c2cccc(F)c2)nc1 [Example 64, N-[1-(2-Fluorobenzyl)piperidin-4-yl]-2-(3-fluorophenyl)pyrimidine-5-carboxamide]"
5,1.92 nM,"CCOC(=O)N1CCC(NC(=O)c2cnc(-c3cccc(F)c3)nc2)C1 (single isomer, unassigned) [Example 82a, Ethyl 3-(2-(3-fluorophenyl)pyrimidine-5-carboxamido)pyrrolidine-1-carboxylate]"
6,0.373 nM,"CCC(CC)N1CCC(NC(=O)c2cnc(-c3cccc(F)c3)nc2)CC1 [Example 68, N-[1-(1-Ethylpropyl)piperidin-4-yl]-2-(3-fluorophenyl)pyrimidine-5-carboxamide]"
7,1.41 nM,"CC(C)(C)OC(=O)N1C[C@H](O)[C@H](NC(=O)c2cnc(-c3cccc(F)c3)nc2)C1 (relative stereo) [Example 94, cis-tert-Butyl 3-(2-(3-fluorophenyl)pyrimidine-5-carboxamido)-4-hydroxypyrrolidine-1-carboxylate]"
8,64 nM,"CC(=O)c1cccc(-c2ncc(C(=O)NC3CCN(C(=O)C(C)(C)C)CC3)cn2)c1 [Example 142, 2-(3-Acetylphenyl)-N-[1-(2,2-dimethylpropanoyl)piperidin-4-yl]pyrimidine-5-carboxamide]"
9,2.65 nM,"NC(=O)c1cccnc1N1C[C@H](O)[C@H](NC(=O)c2cnc(-c3cccc(F)c3)nc2)C1 (relative stereo) [Example 99, Cis-N-{1-[3-(Aminocarbonyl)pyridin-2-yl]-4-hydroxypyrrolidin-3-yl}-2-(3-fluorophenyl)pyrimidine-5-carboxamide]"
10,1.58 nM,"CC(=O)N1CC[C@@H](NC(=O)c2cnc(-c3cccc(F)c3)nc2)C1 [Example 88, N-[(3R)-1-Acetylpyrrolidin-3-yl]-2-(3-fluorophenyl)pyrimidine-5-carboxamide]"
11,2.34 nM,"O=C(NC1CCN(Cc2c(F)ccc(F)c2Cl)C1=O)c1cnc(-c2cccc(F)c2)nc1 (centres unmarked) [Example 85, N-[1-(2-Chloro-3,6-difluorobenzyl)-2-oxopyrrolidin-3-yl]-2-(3-fluorophenyl)pyrimidine-5-carboxamide]"
12,30 nM,"CN1CC[C@@H](NC(=O)c2cnc(-c3cccc(F)c3)nc2)[C@@H](Cc2ccccc2)C1 [Example 72, N-[(3S,4R)-3-Benzyl-1-methylpiperidin-4-yl]-2-(3-fluorophenyl)pyrimidine-5-carboxamide]"
13,13 nM,"CN1CCc2nc(N3CC[C@@H](NC(=O)c4cnc(-c5cccc(F)c5)nc4)C3)ncc2C1 [Example 78a, 2-(3-Fluorophenyl)-N-[(3R)-1-(6-methyl-5,6,7,8-tetrahydropyrido[4,3-d]pyrimidin-2-yl)pyrrolidin-3-yl]pyrimidine-5-carboxamide]"
